Laboratory results taken from patent publication US20200017496A1 (priority 2017, published 2020).
Like-named read-outs stand apart in the source and are kept apart here.

Tests used:
in vivo = assay: in vivo; design: species or system Swiss Mouse; settings: male, Swiss, mouse, in vivo, 10 mg/kg
Procedure: Water and food were available ad libitum throughout the study. Mouse were handled in accordance with the institutional and national guidelines for the care and use of laboratory animals. […] Drugs were administered by oral gavage using feeding needle. […] Plasma samples were stored at -80° C. until bioanalysis. […] Plasma samples bioanalysis and data analysis The plasma samples (20 μl) were thawed at 0° C. […] Standard samples were prepared by spiking the blank plasma into concentrations 10-5 000 ng/ml and otherwise treated as the samples. […] Mass spectrometric detection involved electrospray ionization in the negative mode followed by multiple reaction monitoring of the drugs and internal standard transitions. Actual drug concentrations were deduced from interpolation of the standard curve. The pharmacokinetic parameters were calculated using XLfit (IDBS) and Excel (Microsoft) software, using standard non-compartmental methods. The intraduodenal bioavailability was calculated by dividing the AUC obtained from the intraduodenal administration by the AUC obtained from the intravenous administration.

[1] = test system: Enterobacter cloacae (ECL) isolates; assay: MIC of compounds alone and combined with antibacterials, broth microdilution (CLSI); type: cell-based; settings: for MIC: Enterobacter cloacae
Summary of the method: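 Log-phase isolates at final 5·10^5 CFU/mL in cation-adjusted Mueller-Hinton broth, incubated 16-20 h at 35° C in ambient air. MIC read visually as lowest concentration preventing growth, for compound alone and for antibacterial at each compound concentration.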

## C=CC1=C(C(=O)O)N2C(=O)[C@@H](NC(=O)/C(=N\OCC(=O)O)c3csc(N)n3)[C@H]2SC1 [FIX, Cefixime]
In vivo; iv
  AUC(0-inf): 37200 ng·h/mL
In vivo; po
  bioavailability: 45%
[1]; ECL 2185D, AF1 @ 4 μg/mL
  MIC ATB in combination: >128 µg/mL
[1]; ECL 2185D, AF1 @ 8 μg/mL
  MIC ATB in combination: 64 µg/mL
[1]; ECL 190310, AF1 @ 4 μg/mL
  MIC ATB in combination: 64 µg/mL
[1]; ECL 190310, AF1 @ 8 μg/mL
  MIC ATB in combination: 32 µg/mL
[1]; ECL 190408, AF1 @ 4 μg/mL
  MIC ATB in combination: 0.5 µg/mL
[1]; ECL 190408, AF1 @ 8 μg/mL
  MIC ATB in combination: 0.25 µg/mL
[1]; ECL 200138, AF1 @ 4 μg/mL
  MIC ATB in combination: 64 µg/mL
[1]; ECL 200138, AF1 @ 8 μg/mL
  MIC ATB in combination: 16 µg/mL
[1]; ECL 200322, AF1 @ 4 μg/mL
  MIC ATB in combination: 0.5 µg/mL
[1]; ECL 200322, AF1 @ 8 μg/mL
  MIC ATB in combination: 0.25 µg/mL
[1]; ECL 260033, AF1 @ 4 μg/mL
  MIC ATB in combination: >128 µg/mL
[1]; ECL 260033, AF1 @ 8 μg/mL
  MIC ATB in combination: 2 µg/mL
[1]; ECL 260253, AF1 @ 4 μg/mL
  MIC ATB in combination: 8 µg/mL
[1]; ECL 260253, AF1 @ 8 μg/mL
  MIC ATB in combination: 8 µg/mL
[1]; ECL 260323, AF1 @ 4 μg/mL
  MIC ATB in combination: 64 µg/mL
[1]; ECL 260323, AF1 @ 8 μg/mL
  MIC ATB in combination: 32 µg/mL
[1]; ECL 260508, AF1 @ 4 μg/mL
  MIC ATB in combination: <=0.25 μg/mL
[1]; ECL 260508, AF1 @ 8 μg/mL
  MIC ATB in combination: <=0.25 μg/mL
[1]; ECL NEM146383, AF1 @ 4 μg/mL
  MIC ATB in combination: 32 µg/mL
[1]; ECL NEM146383, AF1 @ 8 μg/mL
  MIC ATB in combination: 16 µg/mL
[1]; ECL P99, AF1 @ 4 μg/mL
  MIC ATB in combination: 16 µg/mL
[1]; ECL P99, AF1 @ 8 μg/mL
  MIC ATB in combination: 1 µg/mL
[1]; ECL UFR12, AF1 @ 4 μg/mL
  MIC ATB in combination: <=0.25 μg/mL
[1]; ECL UFR12, AF1 @ 8 μg/mL
  MIC ATB in combination: <=0.25 μg/mL
[1]; ECL UFR13, AF1 @ 4 μg/mL
  MIC ATB in combination: 8 µg/mL
[1]; ECL UFR13, AF1 @ 8 μg/mL
  MIC ATB in combination: 8 µg/mL
[1]; ECL UFR14, AF1 @ 4 μg/mL
  MIC ATB in combination: 16 µg/mL
[1]; ECL UFR14, AF1 @ 8 μg/mL
  MIC ATB in combination: 8 µg/mL
[1]; ECL UFR60, AF1 @ 4 μg/mL
  MIC ATB in combination: 4 µg/mL
[1]; ECL UFR60, AF1 @ 8 μg/mL
  MIC ATB in combination: 4 µg/mL
[1]; ECL UFR70, AF1 @ 4 μg/mL
  MIC ATB in combination: 16 µg/mL
[1]; ECL UFR70, AF1 @ 8 μg/mL
  MIC ATB in combination: 2 µg/mL
[1]; ECL UFR84, AF1 @ 4 μg/mL
  MIC ATB in combination: 64 µg/mL
[1]; ECL UFR84, AF1 @ 8 μg/mL
  MIC ATB in combination: 16 µg/mL
[1]; ECL UFR85, AF1 @ 4 μg/mL
  MIC ATB in combination: 8 µg/mL
[1]; ECL UFR85, AF1 @ 8 μg/mL
  MIC ATB in combination: 0.5 µg/mL
[1]; ECL UFR194, AF1 @ 4 μg/mL
  MIC ATB in combination: 1 µg/mL
[1]; ECL UFR194, AF1 @ 8 μg/mL
  MIC ATB in combination: 2 µg/mL
[1]; ECL UFR200, AF1 @ 4 μg/mL
  MIC ATB in combination: 1 µg/mL
[1]; ECL UFR200, AF1 @ 8 μg/mL
  MIC ATB in combination: 0.5 µg/mL
[1]; ATB alone, strain ECL UFR197 (TEM-1, CTX-M-15, OXA-1, OXA-48)
  MIC: > 128 µg/mL
[1]; ATB alone, strain ECL UFR198 (TEM-1, SHV-12, CTX-M-15, DHA-1, OXA-1, OXA-48)
  MIC: > 128 µg/mL
[1]; ATB combined with CLA @ 4 μg/ml, strain ECL UFR197 (TEM-1, CTX-M-15, OXA-1, OXA-48), read-out: MIC
  MIC: 128 µg/mL
[1]; ATB combined with CLA @ 4 μg/ml, strain ECL UFR198 (TEM-1, SHV-12, CTX-M-15, DHA-1, OXA-1, OXA-48)
  MIC: > 128 µg/mL
[1]; strain ECL 2185D (OXA-163), ATB alone
  MIC: > 128 µg/mL
[1]; strain ECL 2185D (OXA-163), CLA @ 4 μg/ml+ ATB
  MIC: > 128 µg/mL
[1]; strain ECL 190310 (AmpC), ATB alone
  MIC: > 128 µg/mL
[1]; strain ECL 190310 (AmpC), CLA @ 4 μg/ml+ ATB
  MIC: > 128 µg/mL
[1]; strain ECL 190408 (TEM-1, CTX-M-15, OXA-1), ATB alone
  MIC: 512 µg/mL
[1]; strain ECL 190408 (TEM-1, CTX-M-15, OXA-1), CLA @ 4 μg/ml+ ATB, read-out: MIC
  MIC: 128 µg/mL
[1]; strain ECL 200138 (AmpC), ATB alone
  MIC: > 128 µg/mL
[1]; strain ECL 200138 (AmpC), CLA @ 4 μg/ml+ ATB
  MIC: > 128 µg/mL
[1]; strain ECL 200322 (TEM-1, CTX-M-15, OXA-1), ATB alone
  MIC: > 128 µg/mL
[1]; strain ECL 260033 (AmpC), ATB alone
  MIC: > 128 µg/mL
[1]; strain ECL 260033 (AmpC), CLA @ 4 μg/ml+ ATB
  MIC: > 128 µg/mL
[1]; strain ECL 260253 (TEM-1, KPC-3), ATB alone
  MIC: > 128 µg/mL
[1]; strain ECL 260253 (TEM-1, KPC-3), CLA @ 4 μg/ml+ ATB, read-out: MIC
  MIC: 64 µg/mL
[1]; strain ECL 260323 (AmpC), ATB alone
  MIC: > 128 µg/mL
[1]; strain ECL 260323 (AmpC), CLA @ 4 μg/ml+ ATB
  MIC: > 128 µg/mL
[1]; strain ECL 260508 (TEM-1, CTX-M-15), ATB alone
  MIC: > 128 µg/mL
[1]; strain ECL 260508 (TEM-1, CTX-M-15), CLA @ 4 μg/ml+ ATB
  MIC: 32 µg/mL
[1]; strain ECL NEM146383 (AmpC), ATB alone
  MIC: > 128 µg/mL
[1]; strain ECL NEM146383 (AmpC), CLA @ 4 μg/ml+ ATB
  MIC: > 128 µg/mL
[1]; strain ECL P99 (AmpC), ATB alone
  MIC: > 128 µg/mL
[1]; strain ECL P99 (AmpC), CLA @ 4 μg/ml+ ATB
  MIC: > 128 µg/mL
[1]; strain ECL UFR12 (CTX-M-9, OXA-48), ATB alone
  MIC: 16 µg/mL
[1]; strain ECL UFR12 (CTX-M-9, OXA-48), CLA @ 4 μg/ml+ ATB
  MIC: 8 µg/mL
[1]; strain ECL UFR13 (TEM-1, SHV-12, CTX-M-9, OXA-48), ATB alone
  MIC: > 128 µg/mL
[1]; strain ECL UFR13 (TEM-1, SHV-12, CTX-M-9, OXA-48), CLA @ 4 μg/ml+ ATB, read-out: MIC
  MIC: 128 µg/mL
[1]; strain ECL UFR14 (TEM-1, SHV-12, CTX-M-15, DHA-1, OXA-1, OXA-48), ATB alone
  MIC: > 128 µg/mL
[1]; strain ECL UFR14 (TEM-1, SHV-12, CTX-M-15, DHA-1, OXA-1, OXA-48), CLA @ 4 μg/ml+ ATB
  MIC: > 128 µg/mL
[1]; strain ECL UFR60 (TEM-1, CTX-M-15, KPC-2), ATB alone
  MIC: > 128 µg/mL
[1]; strain ECL UFR60 (TEM-1, CTX-M-15, KPC-2), CLA @ 4 μg/ml+ ATB, read-out: MIC
  MIC: 128 µg/mL
[1]; strain ECL UFR70 (TEM-1, CTX-M-15, CMY-2, OXA-1, Porin loss), ATB alone
  MIC: > 128 µg/mL
[1]; strain ECL UFR70 (TEM-1, CTX-M-15, CMY-2, OXA-1, Porin loss), CLA @ 4 μg/ml+ ATB
  MIC: > 128 µg/mL
[1]; strain ECL UFR84 (TEM-1, AmpC, OXA-1), ATB alone
  MIC: > 128 µg/mL
[1]; strain ECL UFR84 (TEM-1, AmpC, OXA-1), CLA @ 4 μg/ml+ ATB
  MIC: > 128 µg/mL
[1]; strain ECL UFR85 (TEM-1, CTX-M-15, AmpC), ATB alone
  MIC: > 128 µg/mL
[1]; strain ECL UFR85 (TEM-1, CTX-M-15, AmpC), CLA @ 4 μg/ml+ ATB
  MIC: > 128 µg/mL
[1]; strain ECL UFR194 (OXA-48), ATB alone
  MIC: 4 µg/mL
[1]; strain ECL UFR194 (OXA-48), CLA @ 4 μg/ml+ ATB
  MIC: 8 µg/mL
[1]; strain ECL UFR195 (TEM-1, CTX-M-15, OXA-1, OXA-48), ATB alone
  MIC: > 128 µg/mL
[1]; strain ECL UFR195 (TEM-1, CTX-M-15, OXA-1, OXA-48), CLA @ 4 μg/ml+ ATB
  MIC: > 128 µg/mL
[1]; strain ECL UFR196 (TEM-1, CTX-M-15, OXA-1, OXA-48), ATB alone
  MIC: > 128 µg/mL
[1]; strain ECL UFR196 (TEM-1, CTX-M-15, OXA-1, OXA-48), CLA @ 4 μg/ml+ ATB
  MIC: > 128 µg/mL
[1]; strain ECL UFR200 (TEM-1, SHV-12, KPC-2), ATB alone
  MIC: > 128 µg/mL
[1]; strain ECL UFR200 (TEM-1, SHV-12, KPC-2), CLA @ 4 μg/ml+ ATB
  MIC: 16 µg/mL
[1]; strain ECL UFR195, antibacterial combined with AF1 @ 4 μg/mL
  MIC ATB in combination: 4 µg/mL
[1]; strain ECL UFR195, antibacterial combined with AF1 @ 8 μg/mL
  MIC ATB in combination: <=0.25 μg/mL
[1]; strain ECL UFR196, antibacterial combined with AF1 @ 4 μg/mL
  MIC ATB in combination: 16 µg/mL
[1]; strain ECL UFR196, antibacterial combined with AF1 @ 8 μg/mL
  MIC ATB in combination: 4 µg/mL
[1]; strain ECL UFR197, antibacterial combined with AF1 @ 4 μg/mL
  MIC ATB in combination: 16 µg/mL
[1]; strain ECL UFR197, antibacterial combined with AF1 @ 8 μg/mL
  MIC ATB in combination: 1 µg/mL
[1]; strain ECL UFR198, antibacterial combined with AF1 @ 4 μg/mL
  MIC ATB in combination: 64 µg/mL
[1]; strain ECL UFR198, antibacterial combined with AF1 @ 8 μg/mL
  MIC ATB in combination: 64 µg/mL
